Test results: PubChem BioAssay AID1996
≈ marks a conversion by molar mass, not a printed value.

conditions: buffer; pH 7.4; 200.0 µM

Compound | solubility kinetic
COc1cc(C(=S)N2CCOCC2)cc(OC)c1OC | > 44.6 µg/mL
O=C(Cn1c(CO)nc2ccccc21)NCCc1ccccc1 | > 46.4 µg/mL
COc1ccc(NC(=O)c2ccc(-c3ccc([N+](=O)[O-])cc3)o2)cc1 | 1.2 µg/mL (≈ 3.55 µM)
CN(C)NC(=S)NC1CC2CCC1C2 (stereo not given) | > 32 µg/mL
Cc1cc(C)c(NC(=O)C(C)N2CCCCCC2)c(C)c1.Cl (stereo not given) | 36.6 µg/mL
Cc1noc(C)c1S(=O)(=O)Nc1ccc(C(C)C)cc1 | > 44.2 µg/mL
CCOC(=O)CCCCCN1C(=O)c2cccc3cccc(c23)C1=O | 6.4 µg/mL (≈ 18.9 µM)
Cc1ccccc1OCC(=O)NCC(c1ccco1)N1CCCCC1 (stereo not given) | 40.1 µg/mL (≈ 117 µM)
COc1ccc(S(=O)(=O)N2CC(=O)Nc3ccccc32)cc1C | > 49.9 µg/mL
C=CCNC(=O)N1CCC(c2nc3ccccc3s2)CC1 | > 45.2 µg/mL
Cc1c(N2C(=O)c3cccc4cccc(c34)C2=O)cnn1C | > 43.7 µg/mL
O=C(O)C(=O)O.c1ccc(OCCN2CCOCC2)cc1 | > 44.6 µg/mL
Cc1noc(C)c1C(=O)OCC(=O)NCc1ccc(Cl)cc1 | 15.6 µg/mL (≈ 48.3 µM)
CCc1ccc2oc(C(=O)N3CCN(C)CC3)cc(=O)c2c1 | > 45.1 µg/mL
COC(=O)c1sc(SC)c(S(=O)(=O)C(C)C)c1N | 3.8 µg/mL (≈ 12.3 µM)
O=C(Cn1cncn1)N/N=C/c1ccccc1O | > 36.8 µg/mL
Cc1noc(NC(=O)c2ccc(Cl)cc2)c1Cl | 28.2 µg/mL (≈ 104 µM)
O=C(O)CC1(CC(=O)Nc2ccccc2Br)CCCC1 | > 51 µg/mL
S=C(Nc1ccccc1)N1CCN(Cc2ccccc2)CC1 | > 46.7 µg/mL
Cc1nnc(SCC(=O)Nc2ccccc2)n(N)c1=O | > 43.7 µg/mL

Compound | solubility kinetic
O=C(Nc1ccncc1)c1cc2ccccc2cc1O | 5.6 µg/mL (≈ 21.2 µM)
CCc1ccnc(NS(=O)(=O)c2ccc3c(c2)OCCO3)c1 | 7.2 µg/mL (≈ 22.5 µM)
OCCCc1nc2ccccc2n1CCCCOc1ccccc1 | 44.6 µg/mL (≈ 137 µM)
CCOCCCNC(=O)c1c[nH]c2cc(OC)ccc2c1=O | > 45.7 µg/mL
COc1ccc(-c2nc(-c3cccnc3)no2)cc1 | 2.1 µg/mL (≈ 8.29 µM)
Cc1cc(C(=O)COC(=O)C2=COCCO2)c(C)n1-c1ccccc1 | 14.9 µg/mL (≈ 43.6 µM)
Nc1ccc(CCc2ccc(N)cc2)cc1 | 22 µg/mL (≈ 104 µM)
COc1cccc(C(=O)CC(=O)C(=O)Nc2ccc(C)cc2Cl)c1 | 8.1 µg/mL (≈ 23.4 µM)
C[N+]1(C)CCCC(OC(=O)C(O)(c2ccccc2)c2ccccc2)C1.[Br-] (stereo not given) | > 63.1 µg/mL
FC(F)(F)c1cccc(-c2nc(-c3ccncc3)no2)c1 | 0.4 µg/mL (≈ 1.37 µM)
c1cncc(-c2csc(-c3cccnc3)n2)c1 | > 35.9 µg/mL
CC(=O)Nc1ccc(CN2CCCCCC2)cc1 | 33.9 µg/mL (≈ 138 µM)
Cc1cc(OCCCCCn2ccnc2)cc(C)c1Cl.Cl | 23.1 µg/mL
Cc1c([N+](=O)[O-])c([N+](=O)[O-])nn1CC(=O)N1CCOCC1 | > 44.9 µg/mL
COc1cc(C(=O)Nc2nc3ccccc3[nH]2)ccc1OC(F)F | 1 µg/mL (≈ 3 µM)
Cl.O=C(CCN1CCc2ccccc2C1)Nc1ccc(F)c(F)c1 | 37.9 µg/mL
CCOC(=O)C(=O)Nc1ccccc1C(=O)OCC | > 39.8 µg/mL
O=C(Cn1ccc([N+](=O)[O-])n1)NCc1cccnc1 | > 39.2 µg/mL
COc1ccc(C(=O)N2CC3(C)C4CCC3(C)C2(C#N)C4)cc1OC (stereo not given) | 45 µg/mL (≈ 132 µM)
CCc1ccc[n+](-c2nc([O-])sc2C=O)c1 | > 35.1 µg/mL

Compound | solubility kinetic
COc1ccccc1CCC(=O)NCCCn1ccc2ccccc21 | 27.2 µg/mL (≈ 80.8 µM)
O=C(/C=C/c1ccc(Cl)cc1)NC1CCS(=O)(=O)C1 (stereo not given) | > 45 µg/mL
CN(CC(=O)Nc1ccccc1Cl)C(=O)COC(=O)c1ccc([N+](=O)[O-])s1 | > 61.8 µg/mL
CCOC(=O)Cc1csc(NC(=O)c2ccc(Cl)s2)n1 | 13.1 µg/mL (≈ 39.6 µM)
O=C(NCCO)C(=O)c1c(-c2ccccc2)cc2ccccn12 | 38.2 µg/mL (≈ 124 µM)
CCC(C(=O)OCC(=O)Nc1ccc(OC)cc1OC)c1ccccc1 (stereo not given) | 3.5 µg/mL (≈ 9.79 µM)
Cc1ccc2c(C)c(C(=O)N(C)Cc3ccncn3)oc2c1C | 32.7 µg/mL (≈ 106 µM)
Cc1cc(=O)c2cc(NC(=O)c3ccccc3Cl)ccc2[nH]1 | 9.4 µg/mL (≈ 30.1 µM)
CSCCC(NC(=O)C1CCCCC1)c1nc2ccccc2[nH]1 (stereo not given) | 23 µg/mL (≈ 69.4 µM)
Cc1ccc(C)c(Nc2ccc3nonc3c2[N+](=O)[O-])c1 | 2 µg/mL (≈ 7.04 µM)
O=C(Nc1ccccc1Br)c1cccc2ccccc12 | < 0.7 µg/mL
CCc1cc(C(=O)NCC2CCCO2)sc1C (stereo not given) | > 38 µg/mL
O=C(Nc1ccc(NC(=O)c2ccccc2F)cc1)c1ccccc1F | < 0.4 µg/mL
COc1ccccc1CN1CCCCCC1.O=C(O)C(=O)O | 40.8 µg/mL
Cc1ccc(N2C(=O)CN(Cc3ccccc3)C2=S)cc1C | 0.3 µg/mL (≈ 0.966 µM)
O=C(c1cccnc1Cl)N(Cc1ccccc1)Cc1ccccc1 | 39.5 µg/mL (≈ 117 µM)
CCN1C(C(=O)Nc2cc(C)on2)=C(O)c2ccccc2S1(=O)=O | > 52.4 µg/mL
CCCOc1ccc(/C=C/C(=O)NC2CCCCC2)cc1OC | < 0.7 µg/mL
CC1(C)CC(NCc2ccccc2)CCO1.Cl (stereo not given) | 34.2 µg/mL
Cc1ccc(N2C(=O)NC(=O)/C(=C\C=C\c3ccco3)C2=O)cc1 | 8.8 µg/mL (≈ 27.3 µM)
